Source: patent US6933287B1, “Dramatic simplification of a method to treat neoplastic disease by radiation” (priority 1999, dated 2005)

Key:
thymidylate synthetase [1] = molecular target: T1, thymidylate synthetase (Lacticaseibacillus casei, UniProt P00469); settings: read-out: Ki for the inhibition of thymidylate synthetase; cited from earlier work
thymidylate synthetase [2] = molecular target: T1, thymidylate synthetase; settings: cited from earlier work
[3] = Half life of CldC with H4U in mice; type: in vivo; settings: effect of H4U
Excerpt: (§1) Furthermore, CldC plus H4U was not toxic to dogs or monkeys. In monkeys and mice, H4U increased the half life of CldC. This is a very important indicator of the efficacy of CldC plus H4U in the treatment of diseases, in particular tumors in humans.

[4] = Half life of CldC with H4U in monkeys; type: in vivo; settings: effect of H4U
Excerpt: as §1

[5] = tested on: radiation induced fibrosarcoma, RIF-1; settings: toxic doses of CldC; cited from earlier work

T1 sequence (P00469 whole entry): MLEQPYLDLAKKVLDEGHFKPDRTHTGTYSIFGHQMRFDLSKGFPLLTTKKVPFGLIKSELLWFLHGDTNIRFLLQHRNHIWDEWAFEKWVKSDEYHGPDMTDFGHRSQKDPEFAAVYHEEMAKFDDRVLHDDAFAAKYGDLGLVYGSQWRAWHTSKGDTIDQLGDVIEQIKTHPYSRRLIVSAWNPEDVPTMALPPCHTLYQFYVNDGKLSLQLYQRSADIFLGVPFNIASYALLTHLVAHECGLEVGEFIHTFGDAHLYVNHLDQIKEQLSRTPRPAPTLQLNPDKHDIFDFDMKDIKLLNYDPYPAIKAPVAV

Row | SMILES | Ki (thymidylate synthetase [1]) [nM] | also measured
1 | O=c1[nH]c(=O)n([C@H]2C[C@H](O)[C@@H](COP(=O)(O)O)O2)cc1I [IdUMP] | 1600 | –
2 | O=c1[nH]c(=O)n([C@H]2C[C@H](O)[C@@H](COP(=O)(O)O)O2)cc1Br [BrdUMP] | 1400 | –
3 | O=c1[nH]c(=O)n([C@H]2C[C@H](O)[C@@H](COP(=O)(O)O)O2)cc1Cl [CldUMP] | 190 | dehalogenation by thymidylate synthetase (thymidylate synthetase [2]): not dehalogenated
4 | O=C1NC(O)CCN1[C@@H]1O[C@H](CO)[C@@H](O)[C@H]1O (some centres unmarked) [H4U, tetrahydrouridine] | – | half life of CldC [3]: increased; half life of CldC [4]: increased
5 | O=c1[nH]c(=O)n([C@H]2C[C@H](O)[C@@H](COP(=O)(O)O)O2)cc1F [FdUMP] | 15 | –
6 | Nc1nc(=O)n([C@H]2C[C@H](O)[C@@H](CO)O2)cc1Cl [CldC, 5-chloro-2′-deoxycytidine] | – | dose enhancement ratio [5]: 1.6
